{
  "source": "patent US20060104981A1",
  "about": "“Prophylactic/therapeutic agent for cancer” (priority 2002, published 2006)",
  "assay_type_in_all_cases": "cell-based",
  "key": {"[1]": {"system": "EZH2 (RNA) in colon cell line HCT116", "assay": "EZH2 (RNA) expression by quantitative PCR after siRNA transfection", "conditions": "36 hours after transfection, siRNA 45 nM", "description": "(§1) RNA Duplexes for the base sequence represented by SEQ ID NO: 3 (hereinafter briefly referred to as siRNA) were designed (SEQ ID NO: 11 and SEQ ID NO: 12) and provided for the transfection experiment using the synthetic duplexes (Qiagen, Inc.). For control siRNAs, commercially available Control (non-silencing) siRNAs (SEQ ID NO: 13 and SEQ ID NO: 14) (manufactured by Qiagen, Inc.) were used.\n(§2) Colon cell line HCT116 (purchased from ATCC) and lung cancer cell line NCI-H1299 (purchased from ATCC) were used as the test cells used for the following test. Forty-eight hours before transfection of siRNAs, 5×10^5 cells were plated on a 24-well plate (manufactured by Falcon Co., Ltd.). In transfection of these siRNAs, Lipofectamine 2000 (manufactured by Invitrogen Corp.) was used in accordance with its protocol. The final concentration of siRNAs was set at 45 nM. RNA was extracted 36 hours after the transfection, following the protocol of RNeasy Mini Kit (manufactured by Qiagen, Inc.) and cDNA was prepared using TaqMan Reverse Transcription Reagents (manufactured by Applied Biosystems, Inc.). Quantitative PCR was performed on ABI PRISM™ 7900HT Sequence Detector (manufactured by Applied Biosystems, Inc.), using two primers (SEQ ID NO: 6 and SEQ ID NO: 7) and a probe (SEQ ID NO: 8), as in EXAMPLE 4."}, "[2]": {"system": "EZH2 (RNA) in lung cancer cell line NCI-H1299", "assay": "EZH2 (RNA) expression by quantitative PCR after siRNA transfection", "conditions": "36 hours after transfection, siRNA 45 nM", "description": "as §1, §2"}, "colon cell line HCT116": {"system": "colon cell line HCT116", "assay": "Apoptosis (caspase 3/7 activity, Caspase Glo-3/7 assay) after siRNA transfection", "conditions": "day 3 after transfection", "method": "as §1\n(§3) Meanwhile, 1×10^3 cells were seeded on a 96-well plate (manufactured by Falcon Co., Ltd.) to assess the effect on apoptosis. Forty-eight hours later, siRNA or control siRNA to EZH2 was transfected using Lipofectamine 2000 (manufactured by Invitrogen Corp.) as described above. On day 3 after the siRNA transfection, the caspase 3/7 activity as an indicator of apoptosis was compared by the Caspase Glo-3/7 assay (manufactured by Promega Corp.)."}, "[3]": {"system": "lung cancer cell line NCI-H1299", "assay": "Apoptosis (caspase 3/7 activity, Caspase Glo-3/7 assay) after siRNA transfection", "conditions": "day 3 after transfection", "method": "as §1, §3"}},
  "data": [
    {"substance": "siRNA to EZH2: RNA duplexes for the base sequence of SEQ ID NO: 3; antisense strand SEQ ID NO: 11, sense strand SEQ ID NO: 12 (antisense AAGUUGAACAGAAAGCUGCTT; sense GCAGCUUUCUGUUCAACUUTT; RNA duplexes, chemistry of the tt overhangs not given here)", "values": [
      {"measurement": "expression of EZH2 (RNA) as compared to control siRNA (100%)", "setting": "[1]", "result": 50, "unit": "%"},
      {"measurement": "expression of EZH2 (RNA) as compared to control siRNA (100%)", "setting": "[2]", "result": 13, "unit": "%"},
      {"measurement": "apoptosis as compared to the control (100%)", "setting": "colon cell line HCT116", "result": 185, "unit": "%"},
      {"measurement": "apoptosis as compared to the control (100%)", "setting": "[3]", "result": 143, "unit": "%"}
    ]}
  ]
}
